Reference: paper PMC5766630, “Non-estrogenic Xanthohumol Derivatives Mitigate Insulin Resistance and Cognitive Impairment in High-Fat Diet-induced Obese Mice” (Scientific Reports, 2018)

Columns and labels:
[1] = test system: C57BL/6J mice fed a high-fat diet; test: In vivo liver toxicity: plasma AST and ALT; parameters: species or system mouse; conditions: male C57BL/6J mice, HFD, 30 mg/kg/day in diet, 13 weeks; mean ± SE, n = 11–12
Text: Nine-week old male C57BL/6J mice, obtained from The Jackson Laboratory (Bar Harbor, ME, USA), were housed individually in plastic cages under a 12–12-hr light-dark cycle. They were assigned randomly to four groups consisting of 12 mice each. One group (control) was fed a HFD (Dyets Inc., Bethlehem, PA, USA) containing 60%, 20% and 20% total calories from fat, carbohydrate and protein, respectively, and the other three groups were fed the HFD containing XN, DXN, or TXN. The test compounds were dissolved in an isotropic mixture of oleic acid:propylene glycol:Tween 80, 0.9:1:1 by weight (OPT) before incorporation into the HFD. The control diet contained an identical amount of OPT. All diets were prepared in pellet form by Dyets, Inc. (Bethlehem, PA, USA). The mouse diets were formulated to deliver a dose of 30 mg test compound per kg body weight per day. Food intake was measured three times per week and body weights were recorded weekly. At the end of 13 weeks of feeding, the mice were euthanized and blood, liver and skeletal muscle were collected for analyses. All animal protocols were approved by Institutional Animal Care and Use Committee (IACUC) at Oregon State University. Animal experiments were carried out in accordance with the relevant guidelines and regulations.
Plasma triglycerides and total cholesterol were analyzed with commercially available kits (Fisher-Scientific, Pittsburgh, PA, USA). Plasma glucose was analyzed by a test kit obtained from Wako Diagnostics (Mountain View, CA, USA). Plasma insulin and leptin were analyzed by ELISA kits purchased from Alpco Diagnostics (Salem, NH, USA) and Crystal Chem (Downers Grove, IL, USA), respectively. Homeostasis Model Assessment of Insulin Resistance (HOMA-IR) was calculated as follows: fasting plasma insulin concentration (mU/L) × fasting plasma glucose level (mmol/L)/22.5[95]. Plasma levels of AST and ALT were measured using commercially-available kits (Bioo Scientific Corp., Austin, TX, USA) as indicators of in vivo liver toxicity.

[2] = test system: liver AMPK (pAMPKα/total AMPKα); test: AMPK activation in liver by Western blot; format: in vivo, mouse; conditions: HFD mice, 30 mg/kg/day, 13 weeks, vs control
Experimental: Approximately 150 mg of frozen liver and muscle tissues were homogenized in tubes containing RIPA buffer with protease and phosphatase inhibitors plus ceramic beads (1.4 mm Ceramic, Bulk Beads, Fisher Scientific, Pittsburgh, PA, USA) using a Precellys 24 (PEQLAB Biotechnology GmbH, Germany). Liver tissue was homogenized for 1 × 30 sec at 6,500 rpm whereas muscle was homogenized for 3 × 30 sec at 6,500 rpm with 20 sec intervals. The homogenates were centrifuged at 15,700 × g for 10 minutes and aliquots (50 µg of protein) of the supernatant (lysate) were separated by SDS-PAGE using 4–15% MP TGX Gels (Bio-Rad # 4561083) and blotted onto nitrocellulose membranes. Membranes were blocked with 5% nonfat milk for 2 h and incubated with antibodies against pAMPK (Phospho-AMPKα (Thr172) Antibody, cat. no. #2531 Cell Signaling Technology, Danvers, MA, USA), AMPK (AMPKα Antibody, cat. no. #2532 Cell Signaling Technology, Danvers, MA, USA), or β-actin (Santa Cruz Biotechnology) for 1 h or overnight. After a second reaction with secondary antibodies (horseradish peroxidase-conjugated IgG goat antirabbit or goat antimouse antibodies), the protein bands on the nitrocellulose membranes were visualized by enhanced chemiluminescence substrate on a Biorad ChemiDocTM MP Imaging System (BioRad Laboratories Inc, Hercules, CA, USA). Band intensities were quantified by densitometry using Image J software.

[3] = test system: C2C12 cells; test: Seahorse OCR and ECAR measurements (mitochondrial uncoupling); format: cell-based, mouse; conditions: for Increase of OCR in the presence of oligomycin (uncoupled respiration): 5 µM compound after 1 μM oligomycin, compared to the baseline, five independent experiments; for ECAR after addition of compound: 5 µM final concentration, after oligomycin 1 μM
Experimental: OCR and ECAR measurements were performed with a Seahorse XF 24 Analyzer (Agilent Technologies, Inc., Santa Clara, CA, USA). C2C12 cells were plated in culture medium at a density of 40,000 cells per well in a 24-well plate. The cells were then allowed to adhere for 24 h (37 °C, 5% CO2). Prior to the assay, the cells were washed with freshly prepared running medium consisting of Seahorse XF Assay medium (Agilent Technologies, Inc., Santa Clara, CA, USA), 10 mM glucose and 1 mM sodium pyruvate. The pH of the medium was adjusted to 7.4 with 1 M NaOH. The cells were then equilibrated for one hour at 37 °C without CO2. […] To overcome this problem, the test compounds were first dissolved in ethanol and the resulting solution was diluted 100-fold in treatment medium (9 parts XF media and 1 part 10% FBS media) which was added directly to cells. The treatment medium contained 1% FBS and after a further 10-fold dilution into the media in wells, only 0.1% FBS was present during OCR and ECAR measurements. The final concentrations in the wells were: 1 μM for oligomycin, and 5 μM for XN, DXN or TXN. The concentration of oligomycin and the cell density used were selected based on preliminary experiments. Ethanol was added to the control wells not to exceed a final concentration of 0.1% (vehicle control). OCR and ECAR were measured at 9-min intervals.
Seahorse data: to show a consistent baseline, OCR values (in pmol/min/mg protein) and ECAR values (in mpH/min/mg protein) for each value were divided, prior to statistical analysis, by the average of the four pre oligomycin treatment values (0, 8, 17, and 25 min) for the corresponding well and are shown as % pre oligomycin values. To account for repeated measures within wells over time, we utilized a repeated-measures-in-time design using ANOVA procedures in PROC MIXED (SAS). Fixed effects in the model were treatment (control, 5 μM XN, 5 μM DXN, and 5 μM TXN for the compound study), time (0, 8, 17, 25, 34, 43, 52, 60, 69, 78, 86, and 95 min), and their interaction. The random effect was the experiment (5 experiments for the compound study). To account for repeated measures within wells over time, a first order homogeneous variance-covariance matrix [AR(1)] was fitted for each well. Using the ESTIMATE statement, a priori contrasts were constructed by comparing the changes in compound treated cells from the last two time points prior to compound treatment (average 52 and 60 min) to the changes in control cells during the same time-period. This was carried out for each compound and dosage for 69, 78, 86, and 95 min separately and for all four time points combined. Results are shown in the text and the graphs as least squares means and their corresponding SEM (standard error of mean). […]

[4] = test system: human LDL; parameters: method as in PMID 14565769; conditions: cited from earlier work

SMILES | Plasma ALT [1] [U/L] | Plasma AST [1] [U/L] | Increase of liver AMPK activation (phosphorylated AMPKα/total AMPKα) [2] | Increase of OCR in the presence of oligomycin (uncoupled respiration) [3] [%] | ECAR after addition of compound [3] | Inhibition of SIN-1-induced lipid peroxidation of human LDL [4]
COc1cc(O)c(CC=C(C)C)c(O)c1C(=O)CCc1ccc(O)cc1 [DXN, α,β-Dihydroxanthohumol] | 55.8 ± 6.1 | 105.6 ± 6.5 | did not cause a significant activation | 28.7 ± 6.9 | significant decrease | –
COc1cc(O)c(CCC(C)C)c(O)c1C(=O)CCc1ccc(O)cc1 [TXN, tetrahydroxanthohumol] | 56.8 ± 10.5 | 110.5 ± 6.0 | did not cause a significant activation | 56.8 ± 6.9 | significant decrease | little or negligible protection
COc1cc(O)c(CC=C(C)C)c(O)c1C(=O)/C=C/c1ccc(O)cc1 [XN, 3′-[3,3-dimethylallyl]-2′,4′,4-trihydroxy-6′-methoxychalcone] | 68.8 ± 6.8 | 112.3 ± 3.3 | 24% | – | significant decrease | effectively inhibits
